The values that follow come from US20160139123A1, “Shear Wave Imaging Method and Installation for Collecting Information on a Soft Solid” (INSTITUT NATIONAL DE LA SANTE ET DE LA RECHERCHE MEDICALE …, priority 2013, published 2016).

The subject of the assay is naive CD4 T cells. As to the kind of experiment: Differentiation induction of naive CD4 T cells (DP8α induction). Conditions: for effect on the frequency of DP8α cells: short chain fatty acid added to the induction culture. It is filed as cell-based, human. How it is done: Naive CD4 T cells are obtained from PBMC or PBL using the EasySep negative selection kit for naive CD4 T cells ([…] technologies).
Monocytes are isolated from PBMC using the CD14 microbeads positive selection kit of Miltenyi.
Immature dendritic cells (iDC) are prepared from monocytes (CD14+) cultured for 3 days with IL-4 (200 IU/ml) and GM-CSF (1000 IU/ml). Said cells are also called mo-iDC (monocyte-derived immature dendritic cells).
Immature DC are co-cultured for a night with thawed F. prausnitzii bacteria at 1:1 ratio in the presence or not of butyrate. The iDC are then added to naive CD4 cells for 5 days in the presence of IL-2.
Alternatively, butyrate is added later, at the same time as naive CD4 T cell.
DP8α induction is measured by a labeling with CD3-PE (phycoerythrin), CD4-FITC, CD8-APC (allophycocyanin) antibodies. The results are compared with those obtained with unstimulated CD4 T cells, CD4 T cells stimulated by iDC alone and CD4 T cells stimulated by iDC loaded with E. coli.

For `CC(=O)O` [acetate], the “effect on the frequency of DP8α cells” value is given as “no or few effect”.

With `CCCC(=O)O` [butyrate], the “fraction of naive CD4 T cells that acquire the DP8α phenotype (mean)” value (butyrate 0.145 mM added to iDC loaded with F. prausnitzii) amounted to 6%.

Consider `CCC(=O)O` [propionate], for which the “effect on the frequency of DP8α cells” value is given as “no or few effect”.
